Reference: patent publication US20250230147A1, “LACTAMS AS CBL-B INHIBITORS” (Genentech, Inc., priority 2021, published 2025)
Counter-ions that a name gives are not always drawn.

How the values were obtained:
[1] = target: Cbl-b (Homo sapiens (Human), UniProt Q13191); experiment: Cbl-b LCK Ub TR-FRET assay (Cbl-b Lck HTRF); type: biochemical
Procedure, shortened: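 TR-FRET (340 nm excitation, 615/665 nm emission) read after adding HA-ubiquitin–UBE2D2 thioester, anti-HA-D2 and streptavidin-Eu. Beforehand, compounds incubated 60 min with biotinylated Cbl-b, then 90 min with His-LCK and ATP (1 mM in 2× mix); IC50 from 10 concentrations, DMSO high and no-LCK low controls.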

[2] = target: c-Cbl (Homo sapiens (Human), UniProt P22681); experiment: C-Cbl LCK Ub TR-FRET assay (c-cbl Lck HTRF); type: biochemical; settings: for (fold-selectivity): C-cbl Lck HTRF IC50 relative to Cbl-b Lck HTRF IC50
Sequence of c-Cbl (P22681 47-435): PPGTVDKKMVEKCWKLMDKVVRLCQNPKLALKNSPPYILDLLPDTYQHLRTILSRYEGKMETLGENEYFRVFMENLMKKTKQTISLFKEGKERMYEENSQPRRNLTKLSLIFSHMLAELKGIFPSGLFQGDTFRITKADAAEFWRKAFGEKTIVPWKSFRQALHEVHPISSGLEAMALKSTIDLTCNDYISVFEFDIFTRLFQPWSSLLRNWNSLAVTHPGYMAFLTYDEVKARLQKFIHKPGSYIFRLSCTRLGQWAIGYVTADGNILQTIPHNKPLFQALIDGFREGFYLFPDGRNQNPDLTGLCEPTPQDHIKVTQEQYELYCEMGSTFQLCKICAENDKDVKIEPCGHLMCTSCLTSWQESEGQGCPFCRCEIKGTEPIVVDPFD
Procedure, shortened: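 After the ubiquitination reaction, detection mixture was added and plates incubated 20 min at room temperature before reading. IC50 values were calculated with wells lacking LCK as the low control and DMSO as the high control.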

Sequence of Cbl-b (Q13191 40-426): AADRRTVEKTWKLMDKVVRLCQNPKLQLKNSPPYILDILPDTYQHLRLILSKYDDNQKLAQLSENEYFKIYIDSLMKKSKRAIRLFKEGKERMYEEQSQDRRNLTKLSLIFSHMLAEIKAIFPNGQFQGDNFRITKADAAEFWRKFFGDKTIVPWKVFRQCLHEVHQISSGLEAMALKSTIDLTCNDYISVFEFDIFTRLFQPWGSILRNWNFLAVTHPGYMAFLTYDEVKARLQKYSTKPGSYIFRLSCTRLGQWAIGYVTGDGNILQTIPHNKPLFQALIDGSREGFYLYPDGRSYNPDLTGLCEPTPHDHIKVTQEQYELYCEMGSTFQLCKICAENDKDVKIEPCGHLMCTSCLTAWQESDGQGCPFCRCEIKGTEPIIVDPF

SMILES | IC50 [1] [nM] | IC50 [2] [nM] | (fold-selectivity) [2]
Cn1cnnc1[C@@H](F)C1(c2cccc(N3Cc4c(cc(CN5CCC56COC6)cc4C(F)(F)F)C3=O)c2)COC1 [Compound 176, (S)-6-(6-oxa-1-azaspiro[3.3]heptan-1-ylmethyl)-2-(3-(3-(fluoro(4-methyl-4H-1,2,4-triazol-3-yl)methyl)oxetan-3-yl)phenyl)-4-(trifluoromethyl)isoindolin-1-one] | 350 | 1300 | 3.5x
CC(C)[C@H]1CN(C)CCN1Cc1cc2c(c(C(F)(F)F)c1)CN(c1cc(C3([C@@H](F)c4nncn4C)CCC3)cc(NCC3CC3)n1)C2=O [Compound 278, 2-(6-((cyclopropylmethyl)amino)-4-(1-((R)-fluoro(4-methy-4H-1,2,4-triazol-3-yl)methyl)cyclobutyl)pyridin-2-yl)-6-(((S)-2-isopropyl-4-methylpiperazin-1-yl)methyl)-4-(trifluoromethyl)isoindolin-1-one] | 12 | 15 | (1.2x)
Cn1cnnc1CC1(c2cc(OC3CCCC3)nc(N3Cc4c(cc(CNC5(C)CCC5)cc4C(F)(F)F)C3=O)c2)COC1 [Compound 294, 2-(6-(cyclopentyloxy)-4-(3-((4-methyl-4H-1,2,4-triazol-3-yl)methyl)oxetan-3-yl)pyridin-2-yl)-6-(((1-methylcyclobutyl)amino)methyl)-4-(trifluoromethyl)isoindolin-1-one] | 9.5 | 16 | (1.7x)
CC(C)Nc1cc(N2Cc3c(cc(CNC4(C)CCC4)cc3C(F)(F)F)C2=O)cc(C2(Cc3nncn3C)CCC2)c1 [Compound 462, 2-(3-(isopropylamino)-5-(1-((4-methyl-4H-1,2,4-triazol-3-yl)methyl)cyclobutyl)phenyl)-6-(((1-methylcyclobutyl)amino)methyl)-4-(trifluoromethyl)isoindolin-1-one] | 8.3 | 7.9 | (0.95x)
CN1CCN(Cc2cc3c(c(C(F)(F)F)c2)CN(c2cccc(C4(Cc5nncn5C)CC(F)(F)C4)c2)C3=O)CC1C1CC1 (centres unmarked) [Compound 403, 6-((3-cyclopropyl-4-methylpiperazin-1-yl)methyl)-2-(3-(3,3-difluoro-1-((4-methyl-4H-1,2,4-triazol-3-yl)methyl)cyclobutyl)phenyl)-4-(trifluoromethyl)isoindolin-1-one] | 45 | 45 | (1.0x)
Cn1cnnc1CC1(c2cccc(N3Cc4c(cc(CNCC5COC(C)(C)O5)cc4C(F)(F)F)C3=O)c2)CC(F)(F)C1 (centres unmarked) [Compound 357, 2-(3-(3,3-difluoro-1-((4-methyl-4H-1,2,4-triazol-3-yl)methyl)cyclobutyl)phenyl)-6-((((2,2-dimethyl-1,3-dioxolan-4-yl)methyl)amino)methyl)-4-(trifluoromethyl)isoindolin-1-one formate] | 38 | 41 | 
CC(C)[C@@H]1CN(Cc2cc3c(c(C(F)(F)F)c2)CN(c2cccc(C4(Cc5nncn5C)CC(F)(F)C4)c2)C3=O)CCN1 [Compound 428, (R)-2-(3-(3,3-difluoro-1-((4-methyl-4H-1,2,4-triazol-3-yl)methyl)cyclobutyl)phenyl)-6-((3-isopropylpiperazin-1-yl)methyl)-4-(trifluoromethyl)isoindolin-1-one] | 14 | 10 | (0.74x)
Cn1cnnc1CC1(c2cc(NC3CCCC3)nc(N3Cc4c(cccc4C(F)(F)F)C3=O)c2)CCC1 [Compound 296, 2-(6-(cyclopentylamino)-4-(1-((4-methyl-4H-1,2,4-triazol-3-yl)methyl)cyclobutyl)pyridin-2-yl)-4-(trifluoromethyl)isoindolin-1-one] | 440 | 2500 | (5.7x)
